Consider four molecules from article PMC10265003 (Royal Society Open Science, 2023).

Data set [1] can be described thus: RP-HPLC retention time as measure of hydrophobicity. Type of data set: physicochemical. The following applies: Chromolith RP-18e, water/ACN with 0.05% TFA, 5-50% B from 1 to 9 min, 2 ml min^−1, 210 nm, used as measure of hydrophobicity. The method, then: The peptides were analysed using a Hitachi Primaide-DAD 1110 chromatograph and a Chromolith RP-18e High Resolution column (100 × 4.1 i.d. mm) (Merck, Darmstadt, Germany). Water containing 0.05% TFA was used as solvent A, and ACN containing 0.05% TFA was used as solvent B. The elution programme used was […] at a flow rate of 2 ml min^−1 and a wavelength of 210 nm. Ten microlitres of each peptide solution was injected at an approximate concentration of […].

Data set [2] concerns MCF-7 breast cancer line. Type of data set: cell-based, human. The settings on record: 2 h. The method, then: The MTT assay was performed in accordance with previous reports. Briefly, the cells were seeded with a complete medium in 96-well plates at a rate of 10 000 cells and 100 µl per well, and adhesion to the plates was allowed for 24 h. Later, the complete medium was removed, and an incomplete medium was added for synchronization for another 24 h. The cells were then incubated at 37°C for 2 h with 100 µl of peptide at the evaluated concentrations (200, 100, 50, 25, 12.5 and 6.25 µg ml^−1). Next, the peptide was removed from the well and 100 µl of incomplete medium with 10% MTT was added and incubated for 4 h. The medium was replaced with 100 µl of isopropanol, and after 30 min of incubation at 37°C, the absorbance was measured at 575 nm. As a negative control, an incomplete culture medium with 10% MTT was used, and as a positive control, cells without MTT treatment were used. The IC50 value was determined from figure 1 (peptide concentration versus per cent cell viability) using a nonlinear regression model with variable slope and GraphPad Prism 9 statistical analysis software.

Data set [3] relates to MDA-MB-231 breast cancer cell line. The following applies: cytotoxic effect; cited from earlier work. The source says:
(§1) Solid-phase peptide synthesis has allowed chemical and structural modifications to be made to ACPs in order to enhance their activity and increase their resistance to proteolytic degradation.

The test system of data set [4] is MDA-MB-468 breast cancer cell line. The settings on record: cytotoxic effect; cited from earlier work.
Source text: as §1

Data set [5] deals with MCF-7 breast cancer line. The settings on record: cytotoxic effect against MCF-7 cells, not tested in this paper; cited from earlier work. The source says: Dimeric peptides derived from peptide ^26[F]: (RRWQWRFKKLG)2-K-Ahx were synthesized and characterized. The analogues with the highest synthetic viability in terms of purity and yield were ^26[1-Nal] and ^26[hF].
The test system of data set [6] is human breast cancer lines MDA-MB-468 and MDA-MB-231. The settings on record: 4 mg via intra-tumoural route, cited from earlier work. The method, then: Mice treated with peptide ^26[F] recovered completely after 24 h, and the survival rate was 100% after one week of observation. […] Peptide ^26[F] was inoculated in female mic ...

Like-named read-outs stand apart in the source and are kept apart here. Positions of bridges follow the written chain, without caps; N, C: chain ends. Non-standard residues stand in square brackets, D forms with d. Residues, ends and D or L forms follow the SMILES beside them. Chains are numbered I, II in the order given. No end group written: not given here. 4Abz = Nc1ccc(C(=O)O)cc1; 2Abz = Nc1ccccc1C(=O)O; Ahx = NCCCCCC(=O)O

Turning to `CC(C)C[C@H](NC(=O)[C@H](CCCCN)NC(=O)[C@H](CCCCN)NC(=O)c1ccccc1NC(=O)[C@H](Cc1c[nH]c2ccccc12)NC(=O)[C@H](CCC(N)=O)NC(=O)[C@H](Cc1c[nH]c2ccccc12)NC(=O)[C@H](CCCNC(=N)N)NC(=O)[C@@H](N)CCCNC(=N)N)C(=O)NCC(=O)NCCCC[C@H](NC(=O)CNC(=O)[C@H](CC(C)C)NC(=O)[C@H](CCCCN)NC(=O)[C@H](CCCCN)NC(=O)c1ccccc1NC(=O)[C@H](Cc1c[nH]c2ccccc12)NC(=O)[C@H](CCC(N)=O)NC(=O)[C@H](Cc1c[nH]c2ccccc12)NC(=O)[C@H](CCCNC(=N)N)NC(=O)[C@@H](N)CCCNC(=N)N)C(=O)NCCCCCC(N)=O` [^26[2-Abz], (RRWQWR-2-Abz-KKLG)2-K-Ahx] (I: H-RRWQW[2Abz]KKLGK[Ahx]-NH2 / II: H-RRWQW[2Abz]KKLG; amide I:11-II:C; N-terminus assumed), the “tR” value in data set [1] came out at 5.9 min.

In turn, `CC(C)C[C@H](NC(=O)[C@H](CCCCN)NC(=O)[C@H](CCCCN)NC(=O)c1ccc(NC(=O)[C@H](Cc2c[nH]c3ccccc23)NC(=O)[C@H](CCC(N)=O)NC(=O)[C@H](Cc2c[nH]c3ccccc23)NC(=O)[C@H](CCCNC(=N)N)NC(=O)[C@@H](N)CCCNC(=N)N)cc1)C(=O)NCC(=O)NCCCC[C@H](NC(=O)CNC(=O)[C@H](CC(C)C)NC(=O)[C@H](CCCCN)NC(=O)[C@H](CCCCN)NC(=O)c1ccc(NC(=O)[C@H](Cc2c[nH]c3ccccc23)NC(=O)[C@H](CCC(N)=O)NC(=O)[C@H](Cc2c[nH]c3ccccc23)NC(=O)[C@H](CCCNC(=N)N)NC(=O)[C@@H](N)CCCNC(=N)N)cc1)C(=O)NCCCCCC(N)=O` [^26[4-Abz], (RRWQWR-4-Abz-KKLG)2-K-Ahx] (I: H-RRWQW[4Abz]KKLGK[Ahx]-NH2 / II: H-RRWQW[4Abz]KKLG; amide I:11-II:C; N-terminus assumed) gave an IC50 with MCF-7 breast cancer line [2] of 49 µM. Also, the “tR” value in data set [1] is listed as 5.9 min.

As for “(^20RRWQWRMKKLG^30)2-K-Ahx [LfcinB (20–30)2]”, the IC50 in data set [3] is 14 µM; in data set [4] it was 5 µM; with MCF-7 breast cancer line [5], not below 60 µM.

With “Bovine lactoferricin (FKCRRWQWRMKKLGAPSITCVRRAF; ends and bridges not checked; cysteine pairing not given here; UniProt P24627 36-60, looked up) [LfcinB, 25-amino acid ACP generated by gastric pepsin digestion of bovine lactoferrin]”, in data set [6] (NOD-SCI-gamma mice), the safety on administration result is recorded as “safe”. Moreover, in data set [6] (xenografts of MDA-MB-468 and MDA-MB-231 in NOD-SCI-gamma mice), the anti-tumoural effect entry is “had anti-tumoural effect”.
